{
  "source": "patent US12590338B2",
  "about": "“Method and device for detection of ampicillin-resistant non-typhoidal Salmonella” (priority 2018, dated 2026)",
  "test_system": "NTS clinical isolates",
  "assay": "Antibiotics susceptibility test to ampicillin (CLSI disc inhibition zone and/or MIC); also: key: R = Resistant to ampicillin; S = Susceptible to ampicillin",
  "type": "cell-based, non-typhoidal Salmonella",
  "experimental": "Before the NGS study, the antimicrobial susceptibility to ampicillin in the 169 isolates was re-confirmed using the disc inhibition zones or MICs (FIG. 1). Then, the bacterial DNAs were extracted from 53 NTS isolates and NGS was performed using the Illumina© MiSeq sequencer. Subsequently, the NTS serotypes of 53 NTS clinical isolates were confirmed by multilocus sequence typing (MLST) as shown in Table 1. The big genomic data were analyzed to examine presence of plasmid-mediated genes or genetic mutations in the bacterial genome of Salmonella spp. and other bacteria reported in the PubMed, ARG-ANNOT, CARD, and ResFinder (FIG. 1).\nThe 169 NTS clinical isolates were tested for antimicrobial susceptibility based on (CLSI) guidelines. Briefly, bacteria were spread onto Mueller-Hinton MH agar, and co-incubated with antimicrobial disks (Oxoid, Cambridge, UK) of ampicillin individually at 37° C. for 18 hours. Another alternative is measurement of the minimum inhibitory concentrations (MICs) of ampicillin in serial dilutions of ampicillin co-cultured with bacterial solution of NTS isolates. Finally, the resistance to ampicillin in NTS isolates was determined according to the diameter of inhibition zone (≤13 mm) and/or the MIC of ampicillin>16 μg/mL according to the guideline of CLSI.",
  "data": [
    {"smiles": "CC1(C)S[C@@H]2[C@H](NC(=O)[C@H](N)c3ccccc3)C(=O)N2[C@H]1C(=O)O", "note": "[ampicillin]", "values": [
      {"measurement": "AMP-R", "setting": "NTS isolate SH-12, serotype Amsterdam", "result": "S"},
      {"measurement": "AMP-R", "setting": "NTS isolate SH-A1, serotype Enteritidis", "result": "S"},
      {"measurement": "AMP-R", "setting": "NTS isolate SH-B2, serotype Enteritidis", "result": "R"},
      {"measurement": "AMP-R", "setting": "NTS isolate SH-B5, serotype Enteritidis", "result": "R"},
      {"measurement": "AMP-R", "setting": "NTS isolate SH-C2, serotype Newport", "result": "S"},
      {"measurement": "AMP-R", "setting": "NTS isolate SH-C3, serotype Enteritidis", "result": "S"},
      {"measurement": "AMP-R", "setting": "NTS isolate SH-C4, serotype Typhimurium", "result": "R"},
      {"measurement": "AMP-R", "setting": "NTS isolate SH-D2, serotype Enteritidis", "result": "S"},
      {"measurement": "AMP-R", "setting": "NTS isolate SH-D4, serotype Enteritidis", "result": "S"},
      {"measurement": "AMP-R", "setting": "NTS isolate SH-D5, serotype Typhimurium", "result": "S"},
      {"measurement": "AMP-R", "setting": "NTS isolate SH-E1, serotype Unknown", "result": "R"},
      {"measurement": "AMP-R", "setting": "NTS isolate SH-E2, serotype Virchow", "result": "S"},
      {"measurement": "AMP-R", "setting": "NTS isolate SH-E3, serotype Newport", "result": "S"},
      {"measurement": "AMP-R", "setting": "NTS isolate SH-F4, serotype Typhimurium", "result": "R"},
      {"measurement": "AMP-R", "setting": "NTS isolate SH-F5, serotype Enteritidis", "result": "R"},
      {"measurement": "AMP-R", "setting": "NTS isolate SH-G1, serotype Stanley", "result": "S"},
      {"measurement": "AMP-R", "setting": "NTS isolate SH-G2, serotype Typhimurium", "result": "R"},
      {"measurement": "AMP-R", "setting": "NTS isolate SH-G3, serotype Enteritidis", "result": "R"},
      {"measurement": "AMP-R", "setting": "NTS isolate SH-G5, serotype Albany", "result": "R"},
      {"measurement": "AMP-R", "setting": "NTS isolate SH-H3, serotype Derby", "result": "S"},
      {"measurement": "AMP-R", "setting": "NTS isolate SH-H4, serotype Newport", "result": "R"},
      {"measurement": "AMP-R", "setting": "NTS isolate TSAR-C1, serotype Schwarzengrund", "result": "R"},
      {"measurement": "AMP-R", "setting": "NTS isolate TSAR-C2, serotype Schwarzengrund", "result": "R"},
      {"measurement": "AMP-R", "setting": "NTS isolate TSAR-C3, serotype Schwarzengrund", "result": "R"},
      {"measurement": "AMP-R", "setting": "NTS isolate TSAR-C4, serotype Typhimurium", "result": "R"},
      {"measurement": "AMP-R", "setting": "NTS isolate TSAR-C5, serotype Choleraesuis", "result": "R"},
      {"measurement": "AMP-R", "setting": "NTS isolate TSAR-C6, serotype Typhimurium", "result": "R"},
      {"measurement": "AMP-R", "setting": "NTS isolate TSAR-C7, serotype Typhimurium", "result": "R"},
      {"measurement": "AMP-R", "setting": "NTS isolate TSAR-C10, serotype Enteritidis", "result": "R"},
      {"measurement": "AMP-R", "setting": "NTS isolate TSAR-C13, serotype Stanley", "result": "R"},
      {"measurement": "AMP-R", "setting": "NTS isolate TSAR-C16, serotype Typhimurium", "result": "R"},
      {"measurement": "AMP-R", "setting": "NTS isolate TSAR-C19, serotype Stanley", "result": "R"},
      {"measurement": "AMP-R", "setting": "NTS isolate TSAR-E5, serotype Choleraesuis", "result": "R"},
      {"measurement": "AMP-R", "setting": "NTS isolate TSAR-E9, serotype Choleraesuis", "result": "R"},
      {"measurement": "AMP-R", "setting": "NTS isolate TSAR-E10, serotype Typhimurium", "result": "R"},
      {"measurement": "AMP-R", "setting": "NTS isolate TSAR-E16, serotype Virchow", "result": "R"},
      {"measurement": "AMP-R", "setting": "NTS isolate TSAR-E18, serotype Meleagridis", "result": "R"},
      {"measurement": "AMP-R", "setting": "NTS isolate TSAR-E19, serotype Newport", "result": "R"},
      {"measurement": "AMP-R", "setting": "NTS isolate TSAR-E20, serotype Typhimurium", "result": "R"},
      {"measurement": "AMP-R", "setting": "NTS isolate TSAR-N5, serotype Typhimurium", "result": "R"},
      {"measurement": "AMP-R", "setting": "NTS isolate TSAR-N8, serotype Typhimurium", "result": "R"},
      {"measurement": "AMP-R", "setting": "NTS isolate TSAR-N9, serotype Montevideo", "result": "R"},
      {"measurement": "AMP-R", "setting": "NTS isolate TSAR-N15, serotype Schwarzengrund", "result": "R"},
      {"measurement": "AMP-R", "setting": "NTS isolate TSAR-N16, serotype Agona", "result": "R"},
      {"measurement": "AMP-R", "setting": "NTS isolate TSAR-N19, serotype Enteritidis", "result": "R"},
      {"measurement": "AMP-R", "setting": "NTS isolate TSAR-S13, serotype Albany", "result": "R"},
      {"measurement": "AMP-R", "setting": "NTS isolate TSAR-S14, serotype Typhimurium", "result": "R"},
      {"measurement": "AMP-R", "setting": "NTS isolate TSAR-S15, serotype Enteritidis", "result": "R"},
      {"measurement": "AMP-R", "setting": "NTS isolate TSAR-S16, serotype Agona", "result": "R"},
      {"measurement": "AMP-R", "setting": "NTS isolate TSAR-S17, serotype Newport", "result": "R"},
      {"measurement": "AMP-R", "setting": "NTS isolate TSAR-S18, serotype Newport", "result": "R"},
      {"measurement": "AMP-R", "setting": "NTS isolate TSAR-S19, serotype Agona", "result": "R"},
      {"measurement": "AMP-R", "setting": "NTS isolate TSAR-S20, serotype Livingstone", "result": "R"}
    ]}
  ]
}
